Reference: PubChem BioAssay AID1259407 (Chemical Carcinogenesis Research Information System (CCRIS), 2018)
Active and inactive are the calls of the source. The rule behind the calls is not given here.

Test system: CCRIS mutagenicity, Ames/micronucleus/aberration tests
Test: CCRIS mutagenicity studies
[1] = Test System: AMES SALMONELLA TYPHIMURIUM, Strain/Indicator: TA98, Metabolic Activation: NONE, Method: STANDARD PLATE
[2] = Test System: AMES SALMONELLA TYPHIMURIUM, Strain/Indicator: TA98, Metabolic Activation: RAT, LIVER, S-9, AROCLOR 1254, Method: STANDARD PLATE
[3] = Test System: AMES SALMONELLA TYPHIMURIUM, Strain/Indicator: TA100, Metabolic Activation: NONE, Method: STANDARD PLATE
[4] = Test System: AMES SALMONELLA TYPHIMURIUM, Strain/Indicator: TA100, Metabolic Activation: RAT, LIVER, S-9, AROCLOR 1254, Method: STANDARD PLATE
[5] = Test System: MOUSE LYMPHOMA, Strain/Indicator: L5178Y (TK+/TK-), Metabolic Activation: NONE, Method: SUSPENSION/PLATE

With NC(N)=S the mutagenic call (Test System: AMES SALMONELLA TYPHIMURIUM, Strain/Indicator: TA97, Metabolic Activation: HAMSTER, LIVER, S-9, AROCLOR 1254 (10 OR 30%), Method: PREINCUBATION) was “inactive; negative”, the mutagenic call (Test System: AMES SALMONELLA TYPHIMURIUM, Strain/Indicator: TA97, Metabolic Activation: NONE, Method: PREINCUBATION) was “inactive; negative” and the mutagenic call (Test System: AMES SALMONELLA TYPHIMURIUM, Strain/Indicator: TA97, Metabolic Activation: NONE, Method: STANDARD PLATE) was “inactive; negative”. For the same molecule, the mutagenic call (Test System: AMES SALMONELLA TYPHIMURIUM, Strain/Indicator: TA97, Metabolic Activation: RAT, LIVER, S-9, AROCLOR 1254 (10 OR 30%), Method: PREINCUBATION) was “inactive; negative”, the mutagenic call (Test System: AMES SALMONELLA TYPHIMURIUM, Strain/Indicator: TA97, Metabolic Activation: RAT, LIVER, S-9, AROCLOR 1254, Method: STANDARD PLATE) was “inactive; negative” and the mutagenic call (Test System: AMES SALMONELLA TYPHIMURIUM, Strain/Indicator: TA98, Metabolic Activation: HAMSTER, LIVER, S-9, AROCLOR 1254 (10 OR 30%), Method: PREINCUBATION) was “inactive; negative”. For the same molecule, the mutagenic call (Test System: AMES SALMONELLA TYPHIMURIUM, Strain/Indicator: TA98, Metabolic Activation: NONE, Method: PREINCUBATION) was “inactive; negative”, the mutagenic call [1] was “inactive; negative” and the mutagenic call (Test System: AMES SALMONELLA TYPHIMURIUM, Strain/Indicator: TA98, Metabolic Activation: RAT LIVER S-9, PHENOBARBITAL AND BETA-NAPHTHOFLAVONE, Method: PREINCUBATION) was “inactive; negative”. The mutagenic call (Test System: AMES SALMONELLA TYPHIMURIUM, Strain/Indicator: TA98, Metabolic Activation: RAT, LIVER, S-9, AROCLOR 1254 (10 OR 30%), Method: PREINCUBATION) was “inactive; negative”, the mutagenic call [2] was “inactive; negative” and the mutagenic call (Test System: AMES SALMONELLA TYPHIMURIUM, Strain/Indicator: TA100, Metabolic Activation: HAMSTER, LIVER, S-9, AROCLOR 1254 (10 OR 30%), Method: PREINCUBATION) was “inactive; negative”. For the same molecule, the mutagenic call (Test System: AMES SALMONELLA TYPHIMURIUM, Strain/Indicator: TA100, Metabolic Activation: NONE, Method: PREINCUBATION) was “inactive; negative”, the mutagenic call [3] was “inactive; negative” and the mutagenic call (Test System: AMES SALMONELLA TYPHIMURIUM, Strain/Indicator: TA100, Metabolic Activation: RAT LIVER S-9, PHENOBARBITAL AND BETA-NAPHTHOFLAVONE, Method: PREINCUBATION) was “inactive; negative”. The mutagenic call (Test System: AMES SALMONELLA TYPHIMURIUM, Strain/Indicator: TA100, Metabolic Activation: RAT, LIVER, S-9, AROCLOR 1254 (10 OR 30%), Method: PREINCUBATION) was “inactive; negative”, the mutagenic call [4] was “inactive; negative” and the mutagenic call (Test System: AMES SALMONELLA TYPHIMURIUM, Strain/Indicator: TA1535, Metabolic Activation: HAMSTER, LIVER, S-9, AROCLOR 1254 (10 OR 30%), Method: PREINCUBATION) was “inactive; negative”. The mutagenic call (Test System: AMES SALMONELLA TYPHIMURIUM, Strain/Indicator: TA1535, Metabolic Activation: NONE, Method: PREINCUBATION) was “inactive; negative”, the mutagenic call (Test System: AMES SALMONELLA TYPHIMURIUM, Strain/Indicator: TA1535, Metabolic Activation: RAT LIVER S-9, PHENOBARBITAL AND BETA-NAPHTHOFLAVONE, Method: PREINCUBATION) was “inactive; negative” and the mutagenic call (Test System: AMES SALMONELLA TYPHIMURIUM, Strain/Indicator: TA1535, Metabolic Activation: RAT, LIVER, S-9, AROCLOR 1254 (10 OR 30%), Method: PREINCUBATION) was “inactive; negative”. The mutagenic call (Test System: AMES SALMONELLA TYPHIMURIUM, Strain/Indicator: TA1537, Metabolic Activation: NONE, Method: PREINCUBATION) was “inactive; negative”, the mutagenic call (Test System: AMES SALMONELLA TYPHIMURIUM, Strain/Indicator: TA1537, Metabolic Activation: RAT LIVER S-9, PHENOBARBITAL AND BETA-NAPHTHOFLAVONE, Method: PREINCUBATION) was “inactive; negative” and the mutagenic call (Test System: E. COLI, Strain/Indicator: WP2 UVRA, Metabolic Activation: HAMSTER, LIVER, S-9, AROCLOR 1254, Method: STANDARD PLATE) was “inactive; negative”. For the same molecule, the mutagenic call (Test System: E. COLI, Strain/Indicator: WP2 UVRA, Metabolic Activation: HAMSTER, LIVER, S-9, Method: STANDARD PLATE) was “inactive; negative”, the mutagenic call (Test System: E. COLI, Strain/Indicator: WP2 UVRA, Metabolic Activation: MOUSE, LIVER, S-9, AROCLOR 1254, Method: STANDARD PLATE) was “inactive; negative” and the mutagenic call (Test System: E. COLI, Strain/Indicator: WP2 UVRA, Metabolic Activation: MOUSE, LIVER, S-9, Method: STANDARD PLATE) was “inactive; negative”. The mutagenic call (Test System: E. COLI, Strain/Indicator: WP2 UVRA, Metabolic Activation: NONE, Method: STANDARD PLATE) was “inactive; negative”, the mutagenic call (Test System: E. COLI, Strain/Indicator: WP2 UVRA, Metabolic Activation: RAT, LIVER, S-9, AROCLOR 1254, Method: STANDARD PLATE) was “inactive; negative” and the mutagenic call (Test System: E. COLI, Strain/Indicator: WP2 UVRA, Metabolic Activation: RAT, LIVER, S-9, Method: STANDARD PLATE) was “inactive; negative”. The mutagenic call (Test System: E.COLI, Strain/Indicator: WP2UVRA/PKM101, Metabolic Activation: NONE, Method: PREINCUBATION) was “inactive; negative”, the mutagenic call (Test System: E.COLI, Strain/Indicator: WP2UVRA/PKM101, Metabolic Activation: RAT LIVER S-9, PHENOBARBITAL AND BETA-NAPHTHOFLAVONE, Method: PREINCUBATION) was “inactive; negative” and the mutagenic call [5] was “inactive; negative”.

For CCOC(=O)C(Cl)C(C)=O (configuration not stated), the mutagenic call (Test System: AMES SALMONELLA TYPHIMURIUM, Strain/Indicator: TA98, Metabolic Activation: HAMSTER, LIVER, S-9, AROCLOR 1254, Method: STANDARD PLATE) was “inactive; negative”, the mutagenic call [1] was “inactive; negative” and the mutagenic call [2] was “inactive; negative”. For the same molecule, the mutagenic call (Test System: AMES SALMONELLA TYPHIMURIUM, Strain/Indicator: TA100, Metabolic Activation: HAMSTER, LIVER, S-9, AROCLOR 1254, Method: STANDARD PLATE) was “inactive; negative”, the mutagenic call [3] was “inactive; negative” and the mutagenic call [4] was “inactive; negative”. The mutagenic call (Test System: AMES SALMONELLA TYPHIMURIUM, Strain/Indicator: TA1535, Metabolic Activation: HAMSTER, LIVER, S-9, AROCLOR 1254, Method: STANDARD PLATE) was “inactive; negative”, the mutagenic call (Test System: AMES SALMONELLA TYPHIMURIUM, Strain/Indicator: TA1535, Metabolic Activation: NONE, Method: STANDARD PLATE) was “inactive; negative” and the mutagenic call (Test System: AMES SALMONELLA TYPHIMURIUM, Strain/Indicator: TA1535, Metabolic Activation: RAT, LIVER, S-9, AROCLOR 1254, Method: STANDARD PLATE) was “inactive; negative”. For the same molecule, the mutagenic call (Test System: AMES SALMONELLA TYPHIMURIUM, Strain/Indicator: TA1537, Metabolic Activation: HAMSTER, LIVER, S-9, AROCLOR 1254, Method: STANDARD PLATE) was “inactive; negative”, the mutagenic call (Test System: AMES SALMONELLA TYPHIMURIUM, Strain/Indicator: TA1537, Metabolic Activation: NONE, Method: STANDARD PLATE) was “inactive; negative” and the mutagenic call (Test System: AMES SALMONELLA TYPHIMURIUM, Strain/Indicator: TA1537, Metabolic Activation: RAT, LIVER, S-9, AROCLOR 1254, Method: STANDARD PLATE) was “inactive; negative”. For the same molecule, the mutagenic call (Test System: AMES SALMONELLA TYPHIMURIUM, Strain/Indicator: TA1538, Metabolic Activation: HAMSTER, LIVER, S-9, AROCLOR 1254, Method: STANDARD PLATE) was “inactive; negative”, the mutagenic call (Test System: AMES SALMONELLA TYPHIMURIUM, Strain/Indicator: TA1538, Metabolic Activation: NONE, Method: STANDARD PLATE) was “inactive; negative” and the mutagenic call (Test System: AMES SALMONELLA TYPHIMURIUM, Strain/Indicator: TA1538, Metabolic Activation: RAT, LIVER, S-9, AROCLOR 1254, Method: STANDARD PLATE) was “inactive; negative”. The mutagenic call [5] was “inactive; positive. reevaluation of results: negative” and the mutagenic call (Test System: MOUSE LYMPHOMA, Strain/Indicator: L5178Y (TK+/TK-), Metabolic Activation: RAT, LIVER, S-9, AROCLOR 1254, Method: SUSPENSION/PLATE) was “active; positive. reevaluation of results: inconclusive”.

With C#Cc1ccc2c3c(cccc13)-c1ccccc1-2 the mutagenic call [1] was “active; positive” and the mutagenic call (Test System: AMES SALMONELLA TYPHIMURIUM, Strain/Indicator: TA98, Metabolic Activation: RAT, LIVER, S-9, AROCLOR 1254 (2%), Method: STANDARD PLATE) was “active; positive”.
